According to patent US5714471A, “Peptide and peptide analog protease inhibitors” (SIBIA Neurosciences, Inc., priority 1995, dated 1998):
Non-standard residues stand in square brackets, D forms with d. Residues, ends and D or L forms follow the SMILES beside them. ξ: configuration not given here. *: point of attachment. Chg = N[CH](C(=O)O)C1CCCCC1; Nle = CCCC[CH](N)C(=O)O; Cbz = O=C(OCc1ccccc1)*; ξNle = CCCCC(N)C(=O)O; CHN2 = [N-]=[N+]=C*

Tested on: Aβ formation in HGB 717/Swed cells
Assay: Immunoblot assay for Aβ peptide (inhibition of Aβ formation)
Type: cell-based, human
Conditions: overnight incubation, conditioned medium, relative to DMSO control
Text: Human glioblastoma cells (ATCC Accession No. HTB16) were stably transfected with a DNA expression vector encoding a 695 amino acid isoform variant of the amyloid precursor protein (APP) containing the familial Swedish double mutations at codons 670 and 671 (K to N and M to L, respectively; see Mullan et al. (1992) Nature Genet. 1:345-347) and an additional mutation at codon 717 (V to F; see Murrell et al. (1991) Science 254:97-99) to produce cells designated HGB 717/Swed. High levels of Aβ are detectable in the conditioned medium isolated from HGb 717/Swed cultured cells. The medium also contains larger secreted fragments, α-sAPP695, which are alternatively processed APP fragments whose generation precludes Aβ formation.
HGB 717/Swed cells were grown at 37° C. under a 5% carbon dioxide atmosphere in Dulbecco's modified eagle medium (DMEM; Gibco) supplemented with 10% heat-inactivated fetal calf serum, 0.45% glucose, 2 mM L-glutamine, 100 units/ml penicillin, and 100 μg/ml streptomycin sulfate (Gemini Bioproducts). Approximately 1×10^6 cells were incubated overnight in 5 ml of DMEM containing varying μM final concentrations of desired test compounds or a DMSO control. Conditioned medium was collected, and unwanted cells and debris were removed by sedimentation at 3,000 rpm at 4° C.
Aβ peptides were isolated from the medium by immunoaffinity purification using an Aβ-specific antibody. To reduce the interaction of non-specific binding of unrelated proteins, such as serum proteins, to the antibody, the medium was pre-treated with rabbit antisera and Protein A Sepharose (Pharmacia) for 4 hours at 4° C. The sepharose-bound material was removed by centrifugation at 3,000 rpm at 4° C. for 10 min, and Aβ peptides were immunoaffinity purified from the clarified medium by incubation overnight with an affinity purified polyclonal rabbit antibody (referred to as 2939) prepared against a synthetic Aβ peptide corresponding to amino acids 1 to 28. Protein A-conjugated sepharose was added to immobilize the Aβ-antibody complexes, and the resin was pelleted by centrifugation at 3,000 rpm at 4° C. for 10 min. The Aβ -antibody complexes were eluted from the matrix by denaturing the complex by boiling in the presence of SDS.
Equal portions of each sample were loaded on 16% Tricine gels (Novex), and subjected to electrophoresis. Resolved proteins were transferred from the gel to Hybond nitrocellulose (Amersham, Arlington Heights, Ill.) by electroblotting, and incubated with the commercially available monoclonal antibody 6E10 (obtained from Drs. Kim and Wisniewski, Institute for Basic Research, New York, see, published International PCT application WO 90/12871), which specifically recognizes Aβ residues 1 to 17. Specifically bound antibody was detected using a biotinylated goat anti-mouse IgG secondary antibody (Sigma), followed by the addition of streptavidin conjugated to horseradish preoxidase (Amersham, Arlington Heights, Ill.), and documented by luminescent detection (Amersham). Levels of Aβ peptides were determined by laser densitometry of visualized films. A positive result in the assay is a decrease in the formation of the 4-kDa Aβ peptides relative to the DMSO control.

Compound	% INHIBITION OF Aβ (concentration of 40 μM) [%]	% INHIBITION OF Aβ (concentration of 75 μM) [%]	also measured
CC(C)C[C@H](NC(=O)OCc1ccccc1)C(=O)N[C@@H](Cc1ccccc1)C(=O)NC(C=O)CC1CCCCC1 (mixture of isomers) [Cbz--L--F--Cha--(H), (2SR)-N-Cbz-L-Leu-L-Phe-DL-cyclohexylalaninal]	100	–	–
CCCCC(C=O)NC(=O)[C@H](CC(C)C)N(C)C(=O)[C@H](CC(C)C)NC(=O)OCc1ccccc1 (mixture of isomers) [Cbz--L--[CH3]--L--Nl--(H), N-Cbz-L-Leu-L-(methyl)Leu-DL-norleucinal]	77	–	–
CCCCC(C=O)NC(=O)C(CC(C)C)NC(=O)C1CCCN1C(=O)OCc1ccccc1 [Cbz--P--L--Nl--(H), N-Cbz-L-Pro-L-Leu-L-norleucinal] (Cbz-Pro-Leu-[Nle]-aldehyde; configuration not given here)	80	–	–
CCCCC(C#N)NC(=O)[C@H](CC(C)C)NC(=O)[C@H](CC(C)C)NC(C)=O (stereo partly drawn) [Ac--L--L--Nl--(CN), (2S)-N-Ac-L-Leu-L-Leu N-[2-(hexanenitrile)]amide]	–	94	–
C=C(C)CC(C=O)NC(=O)[C@H](Cc1ccccc1)NC(=O)[C@H](CC(C)C)NC(=O)OCc1ccccc1 (mixture of isomers) [Cbz--L--F--Lene--(H), (2SR)-N-Cbz-L-Leu-L-Phe-N-[2-(4-methyl-4-pentenal)]amide]	–	–	% INHIBITION OF Aβ (concentration of 10 μM): 69%
CCCCC(NC(=O)[C@H](CC(C)C)NC(=O)[C@H](CC(C)C)NC(C)=O)C(=O)C(F)(F)F (mixture of isomers) [Ac--L--L--Nl--(TFMK), (3SR)-N-Ac-L-Leu-L-Leu N-[3-(1,1,1-trifluoro-2-oxo-heptyl)]amide]	–	50	–
CC(=O)NC(CC(C)C)C(=O)NC(CC(C)C)C(=O)NC(C=O)C1CCCCC1 [Ac--L--L--Chg--(H)] (Ac-Leu-Leu-[Chg]-aldehyde; configuration not given here)	–	99	–
CC(=O)N[C@@H](CC(C)C)C(=O)N[C@@H](CC(C)C)C(=O)NC(C=O)CC1CCCCC1 (mixture of isomers) [Ac--L--L--Cha--(H), N-Ac-L-Leu-L-Leu-DL-cyclohexylalaninal]	–	–	% INHIBITION OF Aβ (concentration of 10 μM): 46%
CCCCC(NC(=O)[C@H](CC(C)C)NC(=O)[C@H](CC(C)C)NC(C)=O)C(=O)C=[N+]=[N-] (stereo partly drawn) [Ac--L--L--Nl--(DM), N-Ac-L-Leu-L-Leu-L-Nle-COCHN2] (Ac-Leu-Leu-[ξNle]-CHN2)	–	87	–
N-Cbz-L-Leu-L-Leu-DL-(methyl)norleucinal [Cbz--L--L--[CH3]--Nl--(H)]	97	–	–
C=C(C)CC(C=O)NC(=O)[C@H](CC(C)C)NC(=O)[C@H](CC(C)C)OCc1ccccc1 (mixture of isomers) [2S--benzoxyvaleric--L--Lene--(H), (2SR)-N-[(2S)-2-benzoxy-4-methylpentanoyl]-L-Leu N-[2-(4-methyl-4-pentenal)]amide]	85	–	–
CCCCC(C=O)NC(=O)[C@H](CC(C)C)NC(=O)[C@H](CC(C)C)NC(=O)OCC1c2ccccc2-c2ccccc21 (mixture of isomers) [Fmoc--L--L--Nl--(H), N-Fmoc-L-Leu-L-Leu-DL-norleucinal]	–	–	% INHIBITION OF Aβ (concentration of 50 μM): 89%
CC=CCC(C=O)NC(=O)[C@H](CC(C)C)NC(=O)[C@H](CC(C)C)NC(C)=O (mixture of isomers) [Ac--L--L--Nlene--(H), (2SR)-N-Ac-L-Leu-L-Leu N [2-(trans-4-hexenal)]amide]	–	96	–
C=C(C)CC(C=O)NC(=O)[C@H](CC(C)C)NC(=O)[C@H](CC(C)C)NC(=O)OCc1ccccc1 (mixture of isomers) [Cbz--L--L--Lene--(H), (2SR)-N-Cbz-L-Leu-L-Leu N-[2-(4-methyl-4-pentenal)]amide]	–	–	% INHIBITION OF Aβ (concentration of 10 μM): 95%
